Series [1] can be described thus: Determination of absolute bioavailability (restricted PK profile, oral and intravenous). In kind it is in vivo. Conditions: male, Sprague-Dawley, rat, plasma, po, 10 mg/kg, absolute bioavailability (F), male Sprague Dawley rats, oral 10 mg/kg AUC(0-6 h) vs intravenous 3 mg/kg AUC(0-3 h); read-out: Bioavailability. The procedure:
To screen rapidly imidazolidines derivatives based on their absolute bioavailabity, restricted pharmacokinetic profile with only fours sampling time points after oral and intravenous route is investigated in Sprague Dawley rats as follows: each test compound is dosed orally (10 mg/kg) and intravenously (3 mg/kg) to groups of 3 male Sprague Dawley rats. Oral doses are administered as solution in EtOH/PEG400/H2O (1/79/20; v/v) by esophageal gavage (2 mg/mL; 5 mL/kg) and intravenous dose is given as solution in DMSO/PEG400/H2O (1/65/34; v/v) as a bolus in the tail vein (3 mg/mL; 1 mL/kg). Before oral dosing, animals are deprived of food (water ad libitum) for at least 16 hours before the start of the study and 6 hours after administration.
Blood is collected at the retro-orbital sinus into polypropylene tubes (Li-heparinate) at +4° C. at the following sampling-times: 0.083, 0.25, 1 and 3 h after intravenous injection and 0.25, 1, 3 and 6 hours after oral dosing. Three (3) animals are sampled per time-point; each animal being sampled four times. After centrifugation at 5000 rpm for 10 min at +4° C., plasma is collected into polypropylene tubes and kept frozen at −20° C. pending assays. Plasma samples are assayed by a LC-MS/MS method with a lower limit of quantification of 1 to 10 ng/mL depending on the compound (volume of plasma: 100 μL).
A LC-MS/MS method for quantification in heparinized plasma was developed for each test compound. Sample preparation consists of a precipitation of plasma proteins with methanol and filtration by centrifugation of supernatant on Captiva deep-well 96 0.2 μm filter plates. Water was added to methanol supernatant phase prior to analysis by liquid chromatography (Pursuit 5 C18 20×2.0 mm VARIAN, 2 μL loop, gradient Water/Methanol (90/10 to 0/100) over 1.7 min) with turboionspray tandem mass spectrometry (API4000) in negative mode using multiple reaction monitoring. The method includes 8 standard and 3 quality control levels with lower limit of quantification corresponding to first standard level.
Exposures are determined using a non compartmental model (WinNonLin 2.1) and the absolute bioavailability (F) is calculated as follows: [AUC(0-6 h) oral*3 mg/kg]/AUC(0-3 h) IV 10 mg/kg] and expressed in percentage.

Series [2] deals with castrated immature young rats. The experiment in a line: Adapted model of Hershberger's test. Type of series: in vivo, Sprague Dawley rats. Conditions: Rattus norvegicus, po, 96 h, ORX control = 0%, SHAM control = 100%, per os daily for 4 days, dose tested 10 mg/kg. As to the method:
The selective modulating activity of the androgen receptor is tested in a model of castrated immature young rats. This model, which is widely recognised for evaluating the anabolic effects of androgen compounds on the muscles and on the prostate, has been described by Hershberger et al. 1953 Proc. Soc. Expt. Biol. Med. 83:175.
The method is based on the measurement of the well-known effects of androgens on the growth of the muscles and the accessory male sex organs in animals, and also in men. The consequences of castration appear in the form of a rapid involution and atrophy of the prostate and the seminal vesicles and of the anus-lifting muscle (levator ani). This effect may be completely compensated by an exogeneous administration of androgen, in particular of testosterone. The model is thus used to determine the capacity of the tested molecules to maintain the weight of the accessory sex and muscle organs in immature castrated rats, and therefore their androgenic efficacy.
Immature young Sprague Dawley rats (4 to 5 weeks old) weighing approximately 140-160 g (Charles River, Les Oncins, FRANCE) are distributed randomly in various groups and are kept in an environment at 22±2° C. with an alternating day/night cycle of 12 hours and ad libitum access to food and drink.
On day 0 (seven days before commencement of the first treatment) the rats are weighed individually then anaesthetised with an intraperitoneal dose of Ketamine/xylazine (85/15 mg/kg, approximately 2 ml/kg). Each animal is then placed on a sterile field and the abdomen and the scrotum are disinfected with Betadine and 70% alcohol. In the case of the orchidectomised control animals (ORX), the testicles are removed via an incision in the middle of the scrotum. A sterile suture is then made to ligature the supra-testicular portion of the tissue prior to surgical section of each testicle. The groups of animals to be treated by the tested compounds are operated on in an identical manner. In the case of the intact control animals (SHAM), the testicles are similarly extracted and reintroduced delicately to their original location. The site of surgical intervention is then sutured using sterile suture thread, and the site is disinfected again by application of Betadine. Each animal is then kept under a sterile pad until it awoke, before being returned to its cage. The animals are kept in an environment at 22±2° C. with an alternating day/night cycle of 12 hours and ad libitum access to food and drink. The animals are treated with the molecules to be tested from post-surgery day 7 and until day 10 preceding sacrifice (day 11).
The rats are split into groups and treated daily from day 7 to day 10 under the conditions defined below: • 1. SHAM control group: Vehicle (PEG400/DMSO/water; 79/1/20) administered per os. • 2. ORX control group: Vehicle (PEG400/DMSO/water; 79/1/20) administered per os. • 3. Treated ORX group: The tested compounds are administered individually per os in suspension in the vehicle described above, in a dose of 10 mg/kg.
After treatment for 4 successive days, the animals are decapitated using a guillotine. The levator ani and the ventral prostate are removed and weighed individually. For comparing inter-experimental data, the weight of each organ is standardised and expressed in milligrammes per 100 g of the weight of the animal (W). For each organ, the average of the standardised weights of the ORX control group is fixed by definition at 0% and the average of the standardised weights of the SHAM control group is fixed by definition at 100%. The efficacy of each product is expressed as a percentage and calculated using the following formula: (Wtreated−WORX)/(WSHAM−WORX)×100
A subsequent ANOVA test is used for statistical analysis to identify the differences between groups.

The mark [3] stands for this setting: levator ani weight, read-out: Anabolic activity %.
[4] abbreviates: ventral prostate weight, read-out: Androgenic activity % (Prostate).

Where two headings read alike, the source gives them in different places.

For 3 molecules, bioavailability and response vs control in vivo results are on record in US8383608B2, “Imidazolidine compounds as androgen receptor modulators” (Dart Therapeutics LLC, priority 2008, dated 2013).

Regarding `CN1C(=O)N(c2ccc(C#N)c(C(F)(F)F)c2)C(=O)C1(CO)c1ccc(Cl)cc1` (stereo not drawn) [Example 7, 4-[4-(4-Chlorophenyl)-2,5-dioxo-4-hydroxymethyl-3-methyl-imidazolidin-1-yl)-2-trifluoromethylbenzonitrile], the bioavailability in series [1] was over 90%. Further, the response vs control in vivo at 10 mg/kg was 25 to 50% in series [2] (setting [3]) and 0% in series [2] (setting [4]).

With `CN1C(=O)N(c2ccc(C#N)c(C(F)(F)F)c2)C(=O)[C@@]1(CO)c1ccccc1` [Example 10, (S)-4-[2,5-Dioxo-4-(hydroxymethyl)-3-methyl-4-phenylimidazolidin-1-yl]-2-trifluoromethylbenzonitrile], in series [1], the bioavailability was over 90%. Moreover, the values for the response vs control in vivo at 10 mg/kg in series [2] (setting [3]) and in series [2] (setting [4]) were 75 to 100% and 0.5 to 25%, respectively.

Consider `CCN1C(=O)N(c2ccc(C#N)c(C(F)(F)F)c2)C(=O)C1(CO)c1ccccc1` (stereo not drawn) [Example 12, 4-[2,5-Dioxo-3-ethyl-4-(hydroxymethyl)-4-phenylimidazolidin-1-yl]-2-trifluoromethylbenzonitrile], for which the bioavailability in series [1] was 50 to 90%. In addition, the response vs control in vivo at 10 mg/kg in series [2] (setting [3]) was in the range of 75 to 100%; in series [2] (setting [4]) it was 50 to 75%.

The term bioavailability denotes dose-corrected exposure relative to a reference, in per cent.
